How the values were obtained:
Format in all cases: cell-based
IL-6 in THP-1 cells = assay: IL-6 inhibition in LPS-stimulated THP-1 human monocyte cells (HTRF); conditions: for EC50: IL-6 inhibition, LPS-stimulated THP-1 cells, HTRF, 10-point dose-response starting from 10 μM; for inhibition at 10 µM: THP-1, read-out: percentage in parentheses beside EC50 >10
Outline: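 THP-1 cells were serum-reduced (1% FBS, 24 h), plated at 5000 cells/well with compound for 2 h at 37 °C, then stimulated 22 h with 500 ng/mL LPS. Secreted IL-6 was quantified by HTRF (665/620 nm ratio). Signals were normalised to DMSO, and EC50 was fitted by four-parameter nonlinear regression.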

[1] = test system: primary human mesenchymal stem cells (hMSCs); assay: Induction of chondrogenesis in primary human mesenchymal stem cells (chondrogenic nodules, Rhodamine B / Nile Red); conditions: 6 days; for EC50: concentration required to induce 50% levels of chondrogenesis vs TGF-β3, read-out: Conc (nM) of 50% TGF-β3 activity; for Emax: relative to TGF-β3 (10 ng/mL) positive control, read-out: Max. Activity as % TGF-β3 activity
Source text: Representative compounds were screened using primary human mesenchymal stem cells (hMSCs) to determine their ability to induce chondrogenesis (process by which cartilage is developed).
Human Mesenchymal Stem Cell Culture: Primary human mesenchymal stem cells (hMSCs) were purchased from Lonza (Walkersville, Md.) and expanded in Mesenchymal Stem Cell Growth Media (Lonza). Cells between passage 3 and 6 were used for the experiments.
To image chondrogenic nodules, the cells were fixed using 4% formaldehyde (Electron Microscopy Sciences), and stained with 2 μg/mL Rhodamine B (Sigma-Aldrich) and 20 μM Nile Red (Sigma-Aldrich) [Johnson K., et. al, A Stem Cell-Based Approach to Cartilage Repair, Science, (2012). […] Number of nodules in each well was normalized to the average of 3 DMSO treated wells on the same plate using Excel (Microsoft Inc.). The normalized averages (fold change over DMSO) of 3 replicate wells for each compound concentration were calculated. Due to solubility limitations of some of the compounds, curve fitting was incomplete leading to inaccurate EC50 determinations.
Using TGF-β3 as a positive control, the concentration of representative compounds required to induce 50% levels of chondrogenesis is reported. In addition, the maximum activity of each compound and the respective dose that each compound reached maximum chondrogenesis activity is reported.

[2] = test system: Wnt activity (Sp5-Luc reporter, TCF/LEF binding sites) in SW480 colon carcinoma cells; assay: Wnt activity screening assay: Sp5-Luc reporter gene assay in SW480 cells; conditions: Homo sapiens; for EC50: Sp5-Luc reporter, SW480 cells, overnight incubation; for inhibition at 10 µM: SW480, read-out: percent inhibition at 10 μM
Outline: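 SW480 cells stably carrying a luciferase reporter under a human Sp5 promoter with eight TCF/LEF sites, plated at 4,000 cells/well in 1% FBS medium. Luminescence read with BrightGlo, normalized to DMSO-treated cells; EC50 from four-parameter variable-slope nonlinear regression.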

[3] = test system: LL29 cells (primary human fibroblasts derived from IPF patients), α-smooth muscle actin; assay: Inhibition of the fibrotic process: αSMA staining in TGF-β1 treated primary human fibroblasts from IPF patients (LL29 cells); conditions: Fibroblast; for EC50: 96 h, LL29 cells, TGF-β1 20 ng/mL, 4 days, % αSMA positive cells; for inhibition at 10 µM: read-out: percent inhibition at 10 μM
Outline: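 Read-out after 4-day incubation: αSMA staining with 1 μM SYTOX green nuclear counterstain (30 min, room temperature). Cells were LL29 primary fibroblasts from IPF patients, in 1% FBS F12, exposed to TGF-β1 with test compound, referenced to TGF-β1/DMSO control wells.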

SW480 colon cancer cells = assay: Cell viability assay (CellTiter-Blue) in SW480 colon cancer cells; conditions: Homo sapiens; for EC50: 96 h, SW480 cell viability, four days, CellTiter-Blue; for inhibition at 10 µM: SW480, read-out: percent inhibition at 10 μM
Outline: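 Fluorescence from resazurin reduced to resorufin by metabolically active cells was the read-out, taken after ~3 h with CellTiter-Blue.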

| SMILES | EC50 (IL-6 in THP-1 cells) [nM] | EC50 [1] [nM] | Emax [1] [%] | EC50 [2] [nM] | EC50 [3] [nM] | EC50 (SW480 colon cancer cells) [nM] | inhibition at 10 µM [3] [%] | inhibition at 10 µM (SW480 colon cancer cells) [%] | inhibition at 10 µM [2] [%] | inhibition at 10 µM (IL-6 in THP-1 cells) [%] |
| --- | --- | --- | --- | --- | --- | --- | --- | --- | --- | --- |
| c1cc2[nH]c(-c3n[nH]c4ncc(-c5cncc(CN6CCCCC6)c5)cc34)cc2c(N2CCCCC2)n1 [Compound 183, 3-(4-(Piperidin-1-yl)-1H-pyrrolo[3,2-c]pyridin-2-yl)-5-(5-(piperidin-1-ylmethyl)pyridin-3-yl)-1H-pyrazolo[3,4-b]pyridine] | 4800 | 900 | 62 | 3850 | 1220 | 827 | – | – | – | – |
| CC(C)(C)CC(=O)Nc1cncc(-c2cnc3[nH]nc(-c4cc5c(N6CCCCC6)nccc5[nH]4)c3c2)c1 [Compound 184, 3,3-Dimethyl-N-(5-(3-(4-(piperidin-1-yl)-1H-pyrrolo[3,2-c]pyridin-2-yl)-1H-pyrazolo[3,4-b]pyridin-5-yl)pyridin-3-yl)butanamide] | 2260 | – | 84 | 1330 | 773 | 1430 | – | – | – | – |
| O=C(Nc1cncc(-c2cnc3[nH]nc(-c4cc5c(N6CCCCC6)nccc5[nH]4)c3c2)c1)C1CC1 [Compound 188, N-(5-(3-(4-(Piperidin-1-yl)-1H-pyrrolo[3,2-c]pyridin-2-yl)-1H-pyrazolo[3,4-b]pyridin-5-yl)pyridin-3-yl)cyclopropanecarboxamide] | 2540 | – | 42 | 3850 | > 10000 | 6710 | 0 | – | – | – |
| CC(C)CC(=O)Nc1cncc(-c2cnc3[nH]nc(-c4cc5c(N6CCN(C)CC6)nccc5[nH]4)c3c2)c1 [Compound 226, 3-Methyl-N-(5-(3-(4-(4-methylpiperazin-1-yl)-1H-pyrrolo[3,2-c]pyridin-2-yl)-1H-pyrazolo[3,4-b]pyridin-5-yl)pyridin-3-yl)butanamide] | 141 | – | 99 | 3410 | > 10000 | > 10000 | 0 | 57.6 | – | – |
| CN1CCN(c2nccc3[nH]c(-c4n[nH]c5ncc(-c6cncc(N)c6)cc45)cc23)CC1 [Compound 227, 5-(3-(4-(4-Methylpiperazin-1-yl)-1H-pyrrolo[3,2-c]pyridin-2-yl)-1H-pyrazolo[3,4-b]pyridin-5-yl)pyridin-3-amine] | 707 | – | 18 | > 10000 | > 10000 | > 10000 | 0 | 14.4 | 28.1 | – |
| CC(C)C(=O)Nc1cncc(-c2cnc3[nH]nc(-c4cc5c(N6CCN(C)CC6)nccc5[nH]4)c3c2)c1 [Compound 233, N-(5-(3-(4-(4-Methylpiperazin-1-yl)-1H-pyrrolo[3,2-c]pyridin-2-yl)-1H-pyrazolo[3,4-b]pyridin-5-yl)pyridin-3-yl)isobutyramide] | 611 | 30 | 62 | > 10000 | > 10000 | > 10000 | 34 | 10.7 | 19.5 | – |
| CN1CCN(c2nccc3[nH]c(-c4n[nH]c5ncc(-c6cncc(NC(=O)c7ccccc7)c6)cc45)cc23)CC1 [Compound 235, N-(5-(3-(4-(4-Methylpiperazin-1-yl)-1H-pyrrolo[3,2-c]pyridin-2-yl)-1H-pyrazolo[3,4-b]pyridin-5-yl)pyridin-3-yl)benzamide] | 6980 | – | 63 | 3240 | 891 | > 10000 | – | 19.1 | – | – |
| CN1CCN(c2nccc3[nH]c(-c4n[nH]c5ncc(-c6cncc(CN7CCCCC7)c6)cc45)cc23)CC1 [Compound 239, 3-(4-(4-Methylpiperazin-1-yl)-1H-pyrrolo[3,2-c]pyridin-2-yl)-5-(5-(piperidin-1-ylmethyl)pyridin-3-yl)-1H-pyrazolo[3,4-b]pyridine] | 3280 | – | 24 | > 10000 | > 10000 | 3800 | 28.8 | – | 55 | – |
| CN1CCN(c2nccc3[nH]c(-c4n[nH]c5ncc(-c6cncc(NC(=O)C7CCCC7)c6)cc45)cc23)CC1 [Compound 246, N-(5-(3-(4-(4-Methylpiperazin-1-yl)-1H-pyrrolo[3,2-c]pyridin-2-yl)-1H-pyrazolo[3,4-b]pyridin-5-yl)pyridin-3-yl)cyclopentane carboxamide] | 2150 | – | 30 | > 10000 | 6460 | > 10000 | – | 15.4 | 43 | – |
| CCC(=O)Nc1cncc(-c2cnc3[nH]nc(-c4cc5cnccc5[nH]4)c3c2)c1 [Compound 253, N-(5-(3-(1H-Pyrrolo[3,2-c]pyridin-2-yl)-1H-pyrazolo[3,4-b]pyridin-5-yl)pyridin-3-yl)propionamide] | 1000 | – | 17 | 960 | 3710 | > 10000 | – | 50.3 | – | – |
| c1cncc(-c2cnc3[nH]nc(-c4cc5cnccc5[nH]4)c3c2)c1 [Compound 256, 5-(Pyridin-3-yl)-3-(1H-pyrrolo[3,2-c]pyridin-2-yl)-1H-pyrazolo[3,4-b]pyridine] | 218 | – | 54 | 251 | 200 | 356 | – | – | – | – |
| CN(C)c1cncc(-c2cnc3[nH]nc(-c4cc5cnccc5[nH]4)c3c2)c1 [Compound 259, 5-(3-(1H-Pyrrolo[3,2-c]pyridin-2-yl)-1H-pyrazolo[3,4-b]pyridin-5-yl)-N,N-dimethylpyridin-3-amine] | > 10000 | 10 | 80 | 3760 | 1430 | 1630 | – | – | – | 20.1 |
| O=C(Nc1cncc(-c2cnc3[nH]nc(-c4cc5cnccc5[nH]4)c3c2)c1)c1ccccc1 [Compound 263, N-(5-(3-(1H-Pyrrolo[3,2-c]pyridin-2-yl)-1H-pyrazolo[3,4-b]pyridin-5-yl)pyridin-3-yl)benzamide] | > 10000 | 30 | 70 | > 10000 | > 10000 | > 10000 | 0 | 24.6 | 65.5 | 30 |
| c1cc2[nH]c(-c3n[nH]c4ncc(-c5cncc(CN6CCCCC6)c5)cc34)cc2cn1 [Compound 267, 5-(5-(Piperidin-1-ylmethyl)pyridin-3-yl)-3-(1H-pyrrolo[3,2-c]pyridin-2-yl)-1H-pyrazolo[3,4-b]pyridine] | 1560 | – | 40 | 1540 | 1850 | 1240 | – | – | – | – |
| CC(C)(C)CC(=O)Nc1cncc(-c2cnc3[nH]nc(-c4cc5cnccc5[nH]4)c3c2)c1 [Compound 268, N-(5-(3-(1H-Pyrrolo[3,2-c]pyridin-2-yl)-1H-pyrazolo[3,4-b]pyridin-5-yl)pyridin-3-yl)-3,3-dimethylbutanamide] | 683 | – | 7 | 605 | 3350 | 1100 | – | – | – | – |
| CCCC(=O)Nc1cncc(-c2cnc3[nH]nc(-c4cc5cnccc5[nH]4)c3c2)c1 [Compound 269, N-(5-(3-(1H-Pyrrolo[3,2-c]pyridin-2-yl)-1H-pyrazolo[3,4-b]pyridin-5-yl)pyridin-3-yl)butyramide] | 1020 | – | 100 | 867 | 2260 | 3350 | – | – | – | – |
| CCCCC(=O)Nc1cncc(-c2cnc3[nH]nc(-c4cc5cnccc5[nH]4)c3c2)c1 [Compound 271, N-(5-(3-(1H-Pyrrolo[3,2-c]pyridin-2-yl)-1H-pyrazolo[3,4-b]pyridin-5-yl)pyridin-3-yl)pentanamide] | 2860 | – | 31 | 1470 | 4100 | 4030 | – | – | – | – |
